Among the data in the METLIN SMRT retention time set (Domingo-Almenara et al. 2019) are RP-LC retention time values, retold here.

Molecules are shown by their SMILES.

The data set can be described thus: gradient 5% acetonitrile 3 min, to 50% in 2 min, to 85% in 15 min, held 3 min, 100 µL/min. As to conditions: column: Zorbax Extend-C18 2.1 x 50 mm; eluents: water / acetonitrile, 0.1% formic acid. The method, boiled down: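 Each retention time is based on an adduct peak selected computationally and verified by manual inspection. Measurements used HPLC–quadrupole time-of-flight mass spectrometry in positive and negative ionization mode on mixtures of ~100 pure standards. Chromatography ran on a Zorbax Extend-C18 column (2.1 × 50 mm, 1.8 μm) at 100 μL/min with water and acetonitrile, each containing 0.1% formic acid, and dead and dwell volumes of 40 μL and 900 μL.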
In turn, `CC(=O)NCc1csc(C2CCCN(C(=O)c3cc(F)ccc3F)C2)n1` (centres undefined) returned an RP-LC retention time of 667 s.
In turn, `COC(=O)C(C)n1nc2nc(Nc3ccc(C)c(F)c3)cc(C)n2c1=O` (centres undefined) had an RP-LC retention time of 1100 s.
`CCCN(C)C(=O)C1CCN(c2cnn(CCC)c(=O)c2)CC1` came in with an RP-LC retention time of 669 s.
`O=C(Nc1nnc(SCc2nnc(-c3ccc4c(c3)OCO4)o2)s1)c1cccs1`: the RP-LC retention time was 815 s.
In turn, `O=C(c1cn2c(n1)COCC2)N(Cc1ccccc1)Cc1ccco1` came in with an RP-LC retention time of 716 s.
In the case of `CCc1ccc(-c2noc(Cn3cnc4c(cnn4-c4cc(Cl)ccc4C)c3=O)n2)cc1`, the RP-LC retention time was 1210 s.
Turning to `O=C(c1ccsc1)N1CCCn2cc(-c3ccccc3)nc21`, the RP-LC retention time amounted to 640 s.
With `Cc1ccc(NC(=O)CCCn2cccc2)cc1F`, the RP-LC retention time worked out at 874 s.
The molecule `Cc1noc(-c2cccn2Cc2cc(F)cc(F)c2)n1` gave an RP-LC retention time of 1040 s.
With `Cn1cc(CC(=O)NCC#CCN2CCc3ccccc3C2)c2ccccc21`, the RP-LC retention time came out at 578 s.
With `Cn1cc(CN2CCC(C(=O)NCCCc3ccccc3)CC2)c2cc(Cl)ccc21`, the RP-LC retention time amounted to 753 s.
With `Cc1cc(=O)n(CC(=O)Nc2cc(F)ccc2F)c(N2CCOCC2)n1`, the RP-LC retention time came out at 698 s.
In turn, `CNc1nc(Nc2cccc(OC)c2)nc2ccccc12` returned an RP-LC retention time of 650 s.
The same measure for `O=c1ccn(-c2cccc(F)c2)nc1-c1nc(-c2ccc(Br)cc2)no1`: 1000 s; for `COc1ccc(C(=O)N2CCC(COCc3ccccc3)CC2)cc1`: 915 s.
For `CCOC(=O)CNC(=O)N1CCCCCC1c1ccccc1Cl` (centres undefined), the RP-LC retention time is 911 s.
For `CC(C)c1ccc(-c2ccc(=O)n(CCc3nc(-c4ccc5c(c4)OCO5)no3)n2)cc1`, the RP-LC retention time came to 1140 s.
In the case of `Cc1cc(C)c(S(=O)(=O)Nc2ccc(Cn3cncn3)cc2)cc1C`, the RP-LC retention time worked out at 762 s.
Take `CC(C)N1CCC(c2nnc3n2CCN(S(=O)(=O)c2ccc(C(F)(F)F)cc2)C3)C1` (centres undefined): the RP-LC retention time amounted to 650 s.
As to `CCN(CC)C(=O)C1CCC(=O)N(c2ccc(OC)cc2)C1c1ccc(OC)c(OC)c1` (centres undefined), the RP-LC retention time came to 676 s.
The molecule `COc1ccc(CNC(=O)C2CCN(c3nc(C4CCC4)nc4csc(C)c34)CC2)cc1OC` came in with an RP-LC retention time of 957 s.
Take `CN1C(=O)c2cc(C(=O)NCCCN3CCCC3)nn2CC1(C)C(=O)NCc1ccc(F)cc1` (centres undefined): the RP-LC retention time came to 585 s.
`COc1ccc(Oc2ncc(-c3ccc(C(=O)NC4CC4)cc3)cn2)cc1` showed an RP-LC retention time of 774 s.
The molecule `COCCCNC(=O)CC1CCN(C(=O)c2[nH]c(C)c(C)c2C)CC1` registered an RP-LC retention time of 667 s.
The same measure for `O=C(c1cn2ccccc2n1)N1CCN(c2ccc(Cl)cc2)CC1`: 709 s; for `Cc1ccc(-c2cc3c(=O)n(Cc4noc(CN5CCCC5)n4)ccn3n2)cc1C`: 697 s.
As for `CC1Oc2ccccc2OC1C(=O)Nc1cccc(-c2cn3c(n2)SCC3)c1` (centres undefined), the RP-LC retention time amounted to 656 s.
Regarding `CCOc1ccccc1NC(=O)N1CC(n2ccnc2)C1`, the RP-LC retention time is 594 s.
The result for `CCOC(=O)C1=C(c2ccccc2)NC(SCC)=C(C#N)C1c1cccnc1` (centres undefined) reads 650 s; that for `CCCc1noc(-c2ccc3nnc(CC(=O)Nc4ccc(Cl)cc4)n3c2)n1`, 937 s; that for `COc1ccccc1CC(=O)N1CCCn2nc(-c3ccc(Cl)cc3)cc2C1`, 1010 s.
Molecule `CN1CCCN(C(=O)CCc2ccc3c(ccn3C)c2)CC1` yielded an RP-LC retention time of 605 s.
Take `COc1ccc(-c2cc3n(n2)CCCN(S(=O)(=O)c2cccc4cccnc24)C3)cc1`: the RP-LC retention time is 907 s.
Molecule `Cc1sc2ccn(Cc3ccc(F)cc3)c(=O)c2c1C(=O)NC(C)C` showed an RP-LC retention time of 814 s.
